Assay results from patent US11576987B2, “Compositions and methods of treating melanoma” (UNIVERSITY OF IOWA RESEARCH FOUNDATION, priority 2016, dated 2023).
Where a name gives a salt, the structure may show the parent alone.

What was measured:
MCR1 = biological target: T1, MCR1 (Homo sapiens, UniProt Q01726); experiment: Radiobinding assay with [125I]-NDP-a-MSH after drug incubation; assay type: cell-based; conditions: SK-MEL3 and A2058 BRAF^V600E, 4 hours incubation, relative to untreated controls
T1 construct: endogenous in cells; host or cells: SK-MEL3 BRAF V600E and A2058 BRAF V600E human melanoma cells
Experimental: FIGS. 11A-11D. MCR1 expression can be enhanced in human melanoma cells by incubation with PBA and FDA approved melanoma drugs. (A-B) Flow cytometry analysis of MC1R expression in human melanoma cells: (A) SK-MEL3 BRAF^V600E; (B) A2058 BRAF^V600E; incubated for 4 hours with clinically-relevant concentrations of BRAFi: PLX4032 (10 μM), GSK2118436 (2 μM); MEKi: GDC0973 (2 μM), GSK1120212 (2 μM); 4-PBA (4 mM). Cells were stained with anti-MC1R-phycoerythrin (PE) monoclonal antibody conjugate. Fluorescence intensity was corrected by PE-conjugated isotype. Data were expressed as normalized mean fluorescence intensity (NMFI; n=4±SD; *p<0.05). […] (C) SK-MEL3 BRAF^V600E; and (D) A2058 BRAF^V600E was confirmed by radiobinding assay using MCR1-specific peptide [^125I]-NDP-a-MSH following incubation for 4 hours with PBA and FDA approved drugs (as in FIG. 10). […] Binding expressed as radioactivity bound relative to untreated controls (same cells) (n=4±SD; *p<0.05).
PCR measurements give information on the cellular response to drug treatments, but competitive binding assays convey a specific measure of changes in receptor expression (protein level) and changes in ligand-binding interactions as a result of drug treatments (FIGS. 11A-11B). After drug treatments, receptor expression is determined using synthetic α-MSH analog [^125I]-Nle^4-D-Phe^7-alpha-MSH ([^125I]-NDP-MSH) routinely as in FIG. 16D. […]

[1] = cited from earlier work
MCR1 expression = experiment: Pharmacological enhancement of MCR1 expression in human melanoma cells by drug incubation; assay type: cell-based; conditions: human melanoma cells, incubation with drug
Source text: Melanoma if detected early can be cured by surgery, but metastatic melanoma is lethal. New therapies (e.g., immunotherapy; BRAF inhibition, BRAFi) and combinations extend life, but low response rates, acquired drug resistance, and serious side effects are major challenges to improving outcomes for disseminated disease (5 y survival 17%). Peptide-based radionuclide therapy targeted to the melanocortin-receptor type 1 (MCR1-RT) has long been considered a promising alternative; and MCR1-RT has achieved complete responses in mouse models (B16). However, MCR1 expression is heterogeneous/low in human melanoma, and as a result, no previous MCR1-RT study has employed successfully human melanoma cell xenografts. […] This introduces innovative Pb-specific chelator combined with a “click-cyclized” peptide (PSC-C-MCR1) to improve tumor:kidney ratio of radionuclide uptake 7-fold. An effective therapy for metastatic melanoma is developed that combines MCR1-RT with pharmacological agents (PBA; BRAFi/MEKi; HDACi) that enhance MCR1 expression.
Melanoma is the fastest growing cancer incidence in the United States. Surgery combined with radiation can be curative at early stages. However, metastatic melanoma is almost uniformly fatal (5-yr survival 17%). Recent breakthrough targeted MAPKi therapies (e.g., BRAFi) and immunotherapies (e.g., PD-1 inhibitors) have improved outcomes, but low response rates, acquired drug resistance, and adverse side effects limit quality of life for metastatic melanoma patients. For example, approval of immune-checkpoint inhibitor ipilimumab was based on an improvement in overall survival of only 3.7 months (overall response <15%). Combination immunotherapies have improved response (up to 61%), but grade 3/4 adverse events (up to 55%) often lead to therapy discontinuation (up to 36%). For targeted therapies, BRAF inhibitor vemurafenib was approved based on overall survival at 6 months of 84% vs 64% in the control arm (dacarbazine). Combining BRAFi with MEK inhibitors (MEKi) has led to modest improvements, yet recurrence is virtually inevitable. The mechanisms of acquired drug resistance are complex, and include altered/alternative oncogenic pathways; tumor heterogeneity; and enhanced DNA repair. Melanocortin-receptor type 1 targeted radionuclide therapy (MCR1-RT) has long been considered a promising alternative treatment for melanoma; and MCR1-targeted α-particle therapy (^212Pb) has achieved complete responses in mice bearing mouse (B16) tumors that highly express MCR1. However, these studies have been confined primarily to mouse melanoma (B16) cells because MCR1 expression is heterogeneous/low in human melanoma.
Combination therapies for metastatic melanoma are emerging as common practice (e.g., BRAFi plus MEK; and combination immunotherapies), but melanoma almost invariably develops resistance. MCR1-RT has long been considered a promising alternative, but previous therapy studies have been limited to the use of B16 mouse melanoma cells that highly express the MCR1 protein, because native MCR1 expression in human melanoma is heterogeneous/low.

Compound: O=C(O)CCCc1ccccc1 [PBA, 4-phenylbutyric acid, sodium salt]
- binding of MCR1-specific peptide [125I]-NDP-a-MSH (MCR1): increases binding of MCR1-specific peptides
- solubility in acetone and diethyl ether [1]: practically insoluble
- solubility in methanol [1]: freely soluble
- solubility in water [1]: soluble in water
- enhancement of MCR1 expression (MCR1 expression): up to 8 fold
